Measured values as given in US4902690A, “Pest controlling compositions” (The General Hospital Corporation, priority 1988, dated 1990).

Assays:
[1] = system: phosphodiesterase enzyme of hornworm nerve cord; assay: PDE inhibitory activity, hornworm nerve tissue; assay type: biochemical, tobacco hornworm (Manducca sexta); settings: FIG. 8
From the text: (§1) The ability of any compound (A) to inhibit phosphodiesterase (PDE) activity in broken cell preparations of firefly lantern or in pest tissues can be determined either (1) by measuring the decrease in rate of hydrolysis of an added amount of cyclic AMP by PDE (see Methods Section of Nathanson et al., Mol. Pharmacol. 12:390-398 (1975)), or (2) by measuring the rate of accumulation of one of the breakdown products of cyclic AMP, such as 5'-AMP or adenosine (see method of Filburn et al., Anal. Biochem. 52:505-516 (1973)). Both of these are herein incorporated by reference.
(§2) In this assay (modified slightly from Filburn and Karn (Analyt. Biochem. 52: 505-516 (1973)), the rate of hydrolysis of labeled cyclic AMP to 5'-AMP by PDE is measured by converting the breakdown product (5'-AMP) to adenosine, which can be separated and measured by alumina chromatography. Specifically, tissue from either the firefly lantern or pest is homogenized (10-20 mg/ml) in 6 mM Tris-maleate buffer, pH 7.4. The hydrolysis reaction is run in test tubes containing (in 100 microliters): 80 mM Tris maleate, pH 7.4; 6 mM MgSO4; 10 pmoles tritiated cyclic AMP (2×10^4 to 2×10^5 cpm, depending upon the activity of the enzyme); 20 microliters of tissue homogenate; and various concentrations of the compound to be tested. In those cases in which the compound is insoluble in aqueous solution at pH 7.4, pH can be varied between pH 6.5 and 9.0 for optimization of solubility. In addition, the test compound can be initially solubilized in either 100% methanol or DMSO and diluted to a final concentration of 10% methanol or DMSO in the assay (in which case solvent controls are run in parallel).
The reaction is started by the addition of homogenate, run for 4 min at 37° C., and terminated by boiling for 90 sec. […] The void volume is discarded and the column is then eluted with 2 ml of 0.1N ammonium acetate, pH 4.0, the eluent collected and counted by liquid scintillation spectrometry. […]

[2] = system: tobacco hornworms (Manducca sexta); assay: In vivo leaf test (feeding on sprayed tomato leaves)
[3] = system: Firefly phosphodiesterase enzyme; assay: PDE inhibitory activity, firefly lantern; assay type: biochemical, firefly (Photinus pyralis)
From the text: as §1
Generally, any compound capable of maximally inhibiting PDE activity by at least 50% (Vmax -inhibition) and preferably by at least 80% is preferred. Also, in terms of the concentration of the compound required for such inhibition, this can be quantitated by determining the IC 50-inhibition, i.e., the concentration of the compound required to cause 50% of the maximal inhibitioncaused by the compound at any concentration.
as §2
The reaction is started by the addition of homogenate, run for 4 min at 37° C., and terminated by boiling for 90 sec. The 5'AMP formed is then converted to adenosine by the addition of 20 microliters of an aqueous solution of 0.5 Units/ml of 5'-nucleotidase (Sigma, Grade IV), vortexed, and incubated for 30 minutes at 37° C. The second reaction is stopped by addition of 0.4 ml of 0.1N ammonium acetate, pH 4.0. The entire sample is then applied to a 0.5×8 cm column containing neutral alumina prewashed with 20 ml of 0.1N ammonium acetate, pH 4.0. The void volume is discarded and the column is then eluted with 2 ml of 0.1N ammonium acetate, pH 4.0, the eluent collected and counted by liquid scintillation spectrometry. Activity is cpms above that due to a blank which was initially incubated for 0 seconds in the first reaction.

[4] = Level of PDE inhibitor compound in insects in vivo; design: species or system tobacco hornworms; settings: feeding 72 hours on tomato leaves treated with a 1% spray of theophylline; read-out: internal concentration within the insects
Description: To determine this, tobacco hornworms were allowed to feed on tomato leaves treated with a 1% spray of theophylline. This concentration was chosen since it is an amount which, by itself, inhibits feeding in the tobacco hornworm (see FIG. 13). After 72 hours, worms (alive or dead) were removed, quickly rinsed of any compound adhering to their outside cuticle, and then homogenized. The homogenate was centrifuged at 2000×g for 5 minutes and the supernatant was assayed for theophylline concentration by a standard immunoenzymatic procedure (Emit-aad® Theophylline Assay, Syva Company, Palo Alto, Calif.). By this procedure, the internal concentration within the insects was determined to be 4.0 mM. From FIGS. 6,7 or 8 it will be seen that this concentration of theophylline is sufficient to cause at least 70% inhibition of PDE enzyme activity in vitro. The correspondence between in vitro and in vivo results is remarkably close and serves to further support the invention.

[5] = system: PDE in tissue homogenate from tobacco hornworm nerve cord; assay: Cyclic AMP analogue remaining after incubation with nerve cord homogenate; assay type: in vitro ADME, tobacco hornworm (Manducca sexta); settings: IBMX 0.1 mM; 4 hours in vitro; FIG. 20
Description: It has been previously shown, above, that PDE inhibition can increase the concentration of cyclic AMP in insect tissue. […] In order to do this, a fixed amount of butyl-benzylthio cyclic AMP was incubated in vitro for 4 hours in the presence of a tissue homogenate from tobacco hornworm nerve cord. In some tubes, IBMX (0.1 mM) was added to inhibit PDE. After the incubation, the amount of butyl-benzylthio cyclic AMP remaining was measured by protein binding assay (Brown et al., supra), using a standard curve based upon butyl-benzylthio cyclic AMP.

| amount of butyl-benzylthio cyclic AMP present after 4 hours, effect of addition of IBMX [5] | SMILES | pattern of PDE inhibition [1] | % Leaf Remaining (increase over control) ([2]; 1% Theophylline alone) [%] | phosphodiesterase inhibition ([3]; FIG. 6) | inhibition of PDE enzyme activity in vitro ([3]; theophylline 4.0 mM, read from FIGS. 6,7 or 8 (firefly or hornworm)) | concentration [4] [µM] | antifeeding activity in the absence of IBMX ([2]; concentration of 1%, FIGS. 18, 19) |
| --- | --- | --- | --- | --- | --- | --- | --- |
|  | Cn1c(=O)c2[nH]cnc2n(C)c1=O [theophylline] | quite similar to that in the firefly light organ | 11 | active as phosphodiesterase inhibitors | at least 70% | 4000 |  |
| more than doubled | CCCCNc1ncnc2c1nc(SCc1ccccc1)n2[C@@H]1O[C@@H]2COP(=O)(O)O[C@H]2[C@H]1O [n-butylaminobenzylthio cyclic AMP, 6-n-butylamino-8-benzylthio-cyclic AMP] |  |  |  |  |  | some antifeeding activity |
